Patent publication US10758513B2, “Modulators of mitochondrial protein import” (THE REGENTS OF THE UNIVERSITY OF CALIFORNIA, priority 2011, dated 2020)
≈ marks a conversion by molar mass, not a printed value.

What was measured:
[1] = tested on: tim10-1 tim9S suppressor strain; assay: Yeast growth inhibition (MIC50), tim10-1 tim9S suppressor strain; format: cell-based; conditions: Saccharomyces cerevisiae; disrupted for prd5 and snq2
[2] = tested on: tim10-1 tim9S mitochondria; assay: In vitro import of radiolabeled precursors into tim10-1 tim9S mitochondria; format: biochemical, yeast
Protocol: Prior to import into purified mitochondria, ^35S-methionine and cysteine labeled proteins were generated with TNT Quick Coupled Transcription/Translation kits (Promega) and plasmids carrying the gene of interest. Transcription of genes was driven by either a T7 or SP6 promoter. Import reactions were conducted according to established methods. After frozen mitochondria aliquots were thawed and added to the import buffer at a final concentration of 100 μg/mL, drug or DMSO vehicle was added as indicated. A final vehicle concentration of 1% was used in all experiments. Following 15 minute incubation at 25° C., import reactions were initiated by the addition of […] of translation mix. Aliquots were removed at intervals during the reaction timecourse and import was terminated with either cold buffer, 25 μg/mL trypsin, or a combination of both. If trypsin was added to digest unimported precursor protein, soybean trypsin inhibitor (STI) was subsequently added in excess after 15 minute incubation on ice. After a final recovery of by centrifugation (8,000×g, 5 minutes), mitochondria were disrupted in Laemmli sample buffer. Imports of membrane proteins (AAC, PiC, Tom40, Tim22, and Tim23) included a carbonate extraction step to remove proteins that had not inserted into the membrane (Koehler C M, et al. (1998), Science 279:369-373). Samples from import reaction time points were resolved by SDS polyacrylamide gel electrophoresis (SDSPAGE) and gels were dried prior to exposing to film.

[3] = tested on: HSF1 hESCs; assay: Assays in human embryonic stem cells (HSF1); format: cell-based; conditions: 20 μM; alkaline phosphatase staining
Protocol: Human embryonic stem cell (hESCs) line hSF1 was cultured in Stem Pro SFM (Gibco) supplemented with 10 ng/ml bFGF on Matrigel (BD Biosciences) coated plates under 5% CO2, 95% air. Differentiation involved culturing cells in Stem Pro SFM with 10 μM retinoic acid (Acros Organics) for 4 days. Cells were treated with the specific concentration of the compounds or 1% DMSO as a control. For the induction of apoptosis, cells were exposed to 20 μM actinomycin D (Sigma) with or without 100 μM z-VAD-FMK (MP Biomedical). Following treatment, cells were fixed with 3.7% formaldehyde for indirect immunofluorescence study or lysed with Triton buffer (25 mM Tris-HCl pH 7.5, 150 mM NaCl, 1% Triton X-100, 1 mM EDTA) for analysis by SDS-PAGE. Bright field images were acquired with Exi Blue (QImaging). Immunofluorescent images were acquired with a 63× oil immersion objective on an LSM 5 PASCAL Laser Scanning Microscope (Carl Zeiss). Antibodies against cyt c (BD Pharmingen), Tom20 (Santa Cruz), cleaved caspase-3 (Cell Signaling) and poly (ADP-ribose) polymerase (Cell Signaling) were purchased from the indicated vendors. Alkaline phosphatase activity staining was performed with the leukocyte alkaline phosphatase kit (Sigma) as per manufacturer's protocol. […]

[4] = tested on: Δpdr5Δsnq2 yeast strain; assay: Yeast growth inhibition (MIC50), Δpdr5Δsnq2 strain; format: cell-based; conditions: Saccharomyces cerevisiae, ethanol-glycerol media, 25° C., 40 hours
Protocol: For MIC50 analysis in the yeast strains, serial dilution of MitoBloCK-6 (0.5 μl) was pinned into assay plate wells containing 50 μl of yeast (Table 2) in rich ethanol-glycerol media (starting OD600=0.0002). Plates were then incubated at 25° C. in a humidified chamber for 40 hours. Each plate was shaken in a Beckman orbital shaker to resuspend settled cells, and the OD600 in each well was read by a Wallac Victor plate reader (Perkin Elmer).

[5] = tested on: HEK293 cells; assay: Treatment of HEK293 cells with MitoBloCK-6; format: cell-based; conditions: unpublished data
Protocol: For microscopy experiments, HeLa or HEK293 cells were transiently transfected with Su9-EGFP (Lipofectamine, Invitrogen) at 80% confluency. 12 hours post transfection, cells were co-labeled with Mitotracker red CMXRos (Invitrogen) and visualized with a microscope (Axiovert 200M Carl Zeiss) using a Plan-Fluor 63× oil objective. Images were acquired at room temperature with a charge-coupled device camera (ORCA ER, Hamamatsu Photonics) controlled by Axiovision software (Carl Zeiss). Image files were processed by Photoshop software (Adobe). […] For cyt c release assays, a cell fractionation kit (MitoSciences) was used. Briefly, HeLa or HEK293 cells were grown in 10 cm^2 dishes to 80% confluency and then cells were treated with DMSO or MitoBloCK-6 in complete medium for 12-16 h. […] Cells were fractionated to obtain cytosolic and mitochondrial fractions; 100 μg of each fraction was analyzed by SDS-PAGE. Blots were probed with ApoTrack cyt c apoptosis antibody cocktail (MitoSciences).

Compound	MIC50 [1]	protease sensitivity of AAC precursor ([2]; presence of a membrane potential)	import of Hsp60 (TIM23 pathway) ([2]; tim10-1 tim9S mitochondria)	import of Mia40 (Mia40/Erv1 pathway) ([2]; tim10-1 tim9S mitochondria)	import of Su9-DHFR (TIM23 pathway) ([2]; tim10-1 tim9S mitochondria)	import of Tafazzin ([2]; tim10-1 tim9S mitochondria)	import of Tim9 (Mia40/Erv1 pathway) ([2]; tim10-1 tim9S mitochondria)	import of Tim10 (Mia40/Erv1 pathway) ([2]; tim10-1 tim9S mitochondria)	import of Tim22 ([2]; tim10-1 tim9S mitochondria)	import of Tim23 ([2]; tim10-1 tim9S mitochondria)	import of Tom40 ([2]; tim10-1 tim9S mitochondria)	import of cyt b2-DHFR (TIM23 pathway) ([2]; tim10-1 tim9S mitochondria)	import of phosphate carrier (PiC) ([2]; tim10-1 tim9S mitochondria)	import of AAC ([2]; tim10-1 tim9S mitochondria, 1 μM MitoBloCK-1 or greater)	time at which hESC viability started to decline [3]	MIC50 [4]	morphology and viability in HEK293 cells [5]
NC(=S)N/N=C/c1c(O)c(Br)cc2oc3c(c12)CCCC3 [MitoBloCK-1]	10 µM (≈ 3.68 µg/mL)	sensitive to protease	did not impair import	not inhibited	did not impair import	import was inhibited	not inhibited	not inhibited	impaired	but not Tim23 was impaired	inhibited the import	did not impair import	inhibited the import	markedly decreased			
Oc1c(Cl)cc(Cl)cc1/C=N/c1ccc(Nc2ccccc2)cc1 [MitoBloCK-6]															> 5 h	15.2 µM (≈ 5.43 µg/mL)	showed similar results
